Measurements from patent US20260285850A1, “SUBSTITUTED OXAZOLIDINONES AND IMIDAZOLINONES AS HERBICIDES” (FMC CORPORATION, priority 2023, published 2026).

Tests used:
Format in all cases: in vivo
[1] = test system: ragweed (common ragweed, Ambrosia artemisiifolia); assay: Test A postemergence application, visual injury rating 0-100; settings: Postemergence, 10 days, 0 is no effect, 100 is complete control
In short: (§1)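 Rating: visual, day 10, untreated plants as reference, 0 no effect to 100 full control. Plants were in loam-sand and were treated either preemergence via directed soil spray or postemergence at the one- to two-leaf stage.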

[2] = test system: foxtail, giant (giant foxtail, Setaria faberi); assay: as above; settings: 10 days, 0 is no effect, 100 is complete control
In short: as §1

soybean (Glycine max) [3] = assay: as above; settings: Postemergence, 10 days, 0 is no effect, 100 is complete control
In short: as §1

[4] = test system: horseweed (Erigeron canadensis); assay: as above; settings: Postemergence, 10 days, 0 is no effect, 100 is complete control
In short: as §1

kochia (Bassia scoparia) [5] = assay: as above; settings: Postemergence, 10 days, 0 is no effect, 100 is complete control
In short: as §1

[6] = test system: barnyardgrass (Echinochloa crus-galli); assay: as above; settings: Postemergence, 10 days, 0 is no effect, 100 is complete control
In short: as §1

[7] = test system: wheat (Triticum aestivum); assay: as above; settings: Postemergence, 10 days, 0 is no effect, 100 is complete control
In short: as §1

[8] = test system: ryegrass, Italian (italian ryegrass, Lolium multiflorum); assay: as above; settings: Postemergence, 10 days, 0 is no effect, 100 is complete control
In short: as §1

corn (Zea mays) [9] = assay: as above; settings: Postemergence, 10 days, 0 is no effect, 100 is complete control
In short: as §1

[10] = test system: oat, wild (wild oat, Avena fatua); assay: as above; settings: Postemergence, 10 days, 0 is no effect, 100 is complete control
In short: as §1

[11] = test system: galium (catchweed bedstraw, Galium aparine); assay: as above; settings: Postemergence, 10 days, 0 is no effect, 100 is complete control
In short: as §1

[12] = test system: palmer (palmer amaranth, palmer pigweed, Amaranthus palmeri); assay: as above; settings: Postemergence, 10 days, 0 is no effect, 100 is complete control
In short: as §1

[13] = test system: blackgrass (Alopecurus myosuroides); assay: as above; settings: Postemergence, 10 days, 0 is no effect, 100 is complete control
In short: as §1

rice (Oryza sativa) = assay: Test B flooded paddy test, visual plant response rating 0-100; settings: 250 g ai/ha, Flood, applied to paddy water, evaluated after 13 days
In short: (§2)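 2-leaf plants; flood 3 cm over soil; compound dosed into paddy water; depth kept constant; greenhouse 13 d; visual scoring vs controls. Dash = no result.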

[14] = test system: ducksalad (Heteranthera limosa); assay: as above; settings: 250 g ai/ha, Flood, applied to paddy water, evaluated after 13 days
In short: as §2

[15] = test system: sedge, umbrella (small-flower umbrella sedge, Cyperus difformis); assay: as above; settings: 250 g ai/ha, Flood, applied to paddy water, evaluated after 13 days
In short: as §2

[16] = test system: barnyardgrass (Echinochloa crusgalli); assay: as above; settings: 250 g ai/ha, Flood, applied to paddy water, evaluated after 13 days
In short: as §2

[17] = test system: ragweed (common ragweed, Ambrosia artemisiifolia); assay: Test A preemergence soil spray, visual injury rating 0-100; settings: 10 days, 0 = no effect, 100 = complete control
In short: as §1

[18] = test system: foxtail, giant (giant foxtail, Setaria faberi); assay: as above; settings: 10 days, 0 = no effect, 100 = complete control
In short: as §1

soybean (Glycine max) [19] = assay: as above; settings: 10 days, 0 = no effect, 100 = complete control
In short: as §1

kochia (Bassia scoparia) [20] = assay: as above; settings: 10 days, 0 = no effect, 100 = complete control
In short: as §1

[21] = test system: barnyardgrass (Echinochloa crus-galli); assay: as above; settings: 10 days, 0 = no effect, 100 = complete control
In short: as §1

[22] = test system: wheat (Triticum aestivum); assay: as above; settings: 10 days, 0 = no effect, 100 = complete control
In short: as §1

[23] = test system: ryegrass, Italian (italian ryegrass, Lolium multiflorum); assay: as above; settings: 10 days, 0 = no effect, 100 = complete control
In short: as §1

corn (Zea mays) [24] = assay: as above; settings: 10 days, 0 = no effect, 100 = complete control
In short: as §1

[25] = test system: oat, wild (wild oat, Avena fatua); assay: as above; settings: 10 days, 0 = no effect, 100 = complete control
In short: as §1

[26] = test system: palmer (palmer amaranth, palmer pigweed, Amaranthus palmeri); assay: as above; settings: 10 days, 0 = no effect, 100 = complete control
In short: as §1

[27] = test system: blackgrass (Alopecurus myosuroides); assay: as above; settings: 10 days, 0 = no effect, 100 = complete control
In short: as §1

Compound: CC1(C(=O)NC2C=CC(C(=O)NS(C)(=O)=O)C2)CN(c2cc(F)cc(F)c2)C(=O)O1 (stereo not shown) [Compound 30]
- Ragweed plant response rating (0 to 100 scale) ([1]; 125 g ai/ha): 20
- Ragweed plant response rating (0 to 100 scale) ([1]; 500 g ai/ha): 80
- Foxtail, Giant plant response rating (0 to 100 scale) ([2]; 125 g ai/ha): 90
- Foxtail, Giant plant response rating (0 to 100 scale) ([2]; 500 g ai/ha): 90
- Soybean plant response rating (0 to 100 scale) (soybean (Glycine max) [3]; 125 g ai/ha): 60
- Soybean plant response rating (0 to 100 scale) (soybean (Glycine max) [3]; 500 g ai/ha): 70
- Horseweed plant response rating (0 to 100 scale) ([4]; 125 g ai/ha): 30
- Horseweed plant response rating (0 to 100 scale) ([4]; 500 g ai/ha): 80
- Kochia plant response rating (0 to 100 scale) (kochia (Bassia scoparia) [5]; 125 g ai/ha): 70
- Kochia plant response rating (0 to 100 scale) (kochia (Bassia scoparia) [5]; 500 g ai/ha): 80
- Barnyardgrass plant response rating (0 to 100 scale) ([6]; 125 g ai/ha): 100
- Barnyardgrass plant response rating (0 to 100 scale) ([6]; 500 g ai/ha): 100
- Wheat plant response rating (0 to 100 scale) ([7]; 125 g ai/ha): 80
- Wheat plant response rating (0 to 100 scale) ([7]; 500 g ai/ha): 80
- Ryegrass, Italian plant response rating (0 to 100 scale) ([8]; 125 g ai/ha): 80
- Ryegrass, Italian plant response rating (0 to 100 scale) ([8]; 500 g ai/ha): 100
- Corn plant response rating (0 to 100 scale) (corn (Zea mays) [9]; 125 g ai/ha): 60
- Corn plant response rating (0 to 100 scale) (corn (Zea mays) [9]; 500 g ai/ha): 90
- Oat, Wild plant response rating (0 to 100 scale) ([10]; 125 g ai/ha): 100
- Oat, Wild plant response rating (0 to 100 scale) ([10]; 500 g ai/ha): 100
- Galium plant response rating (0 to 100 scale) ([11]; 125 g ai/ha): 80
- Galium plant response rating (0 to 100 scale) ([11]; 500 g ai/ha): 80
- Amaranth, Palmer / Pigweed, Palmer plant response rating (0 to 100 scale) ([12]; 125 g ai/ha): 90
- Amaranth, Palmer / Pigweed, Palmer plant response rating (0 to 100 scale) ([12]; 500 g ai/ha): 90
- Blackgrass plant response rating (0 to 100 scale) ([13]; 125 g ai/ha): 70
- Blackgrass plant response rating (0 to 100 scale) ([13]; 500 g ai/ha): 100
- Plant response rating, Rice (0 to 100 scale, 0 is no effect and 100 is complete control) (rice (Oryza sativa)): 0
- Plant response rating, Ducksalad (0 to 100 scale, 0 is no effect and 100 is complete control) [14]: 65
- Plant response rating, Sedge, Umbrella (0 to 100 scale, 0 is no effect and 100 is complete control) [15]: 95
- Plant response rating, Barnyardgrass (0 to 100 scale, 0 is no effect and 100 is complete control) [16]: 15
- Ragweed plant response rating (0 to 100 scale) ([17]; 125 g ai/ha): 40
- Ragweed plant response rating (0 to 100 scale) ([17]; 500 g ai/ha): 60
- Foxtail, Giant plant response rating (0 to 100 scale) ([18]; 125 g ai/ha): 30
- Foxtail, Giant plant response rating (0 to 100 scale) ([18]; 500 g ai/ha): 100
- Soybean plant response rating (0 to 100 scale) (soybean (Glycine max) [19]; 125 g ai/ha): 0
- Soybean plant response rating (0 to 100 scale) (soybean (Glycine max) [19]; 500 g ai/ha): 80
- Kochia plant response rating (0 to 100 scale) (kochia (Bassia scoparia) [20]; 125 g ai/ha): 90
- Kochia plant response rating (0 to 100 scale) (kochia (Bassia scoparia) [20]; 500 g ai/ha): 90
- Barnyardgrass plant response rating (0 to 100 scale) ([21]; 125 g ai/ha): 60
- Barnyardgrass plant response rating (0 to 100 scale) ([21]; 500 g ai/ha): 100
- Wheat plant response rating (0 to 100 scale) ([22]; 125 g ai/ha): 90
- Wheat plant response rating (0 to 100 scale) ([22]; 500 g ai/ha): 100
- Ryegrass, Italian plant response rating (0 to 100 scale) ([23]; 125 g ai/ha): 70
- Ryegrass, Italian plant response rating (0 to 100 scale) ([23]; 500 g ai/ha): 90
- Corn plant response rating (0 to 100 scale) (corn (Zea mays) [24]; 125 g ai/ha): 70
- Corn plant response rating (0 to 100 scale) (corn (Zea mays) [24]; 500 g ai/ha): 80
- Oat, Wild plant response rating (0 to 100 scale) ([25]; 125 g ai/ha): 60
- Oat, Wild plant response rating (0 to 100 scale) ([25]; 500 g ai/ha): 90
- Amaranth, Palmer plant response rating (0 to 100 scale) ([26]; 125 g ai/ha): 80
- Amaranth, Palmer plant response rating (0 to 100 scale) ([26]; 500 g ai/ha): 100
- Blackgrass plant response rating (0 to 100 scale) ([27]; 125 g ai/ha): 80
- Blackgrass plant response rating (0 to 100 scale) ([27]; 500 g ai/ha): 90
